ChEMBL document CHEMBL4145548, “Pyrimidine-chloroquinoline hybrids: Synthesis and antiplasmodial activity” (Eur J Med Chem, 2018)
Values after ≈ are worked out from the molar mass of the structure shown.

System: Plasmodium falciparum
Assay: microbe, parasite or virus in culture
Settings: Dd2
Description: Antiplasmodial activity against chloroquine-resistant Plasmodium falciparum Dd2 by LDH release assay

Row | SMILES | IC50
1 | Cc1nc(OCc2cn(CCNc3ccnc4cc(Cl)ccc34)nn2)nc(-c2ccccc2[N+](=O)[O-])c1C(=O)OC(C)C | 1.08 µM
2 | Cc1nc(OCc2cn(CCCNc3ccnc4cc(Cl)ccc34)nn2)nc(-c2ccccc2[N+](=O)[O-])c1C(=O)OC(C)C | 0.86 µM

System: Vero
Assay: Cytotoxicity against African green monkey Vero cells assessed as reduction in cell viability by MTT assay
Assay type: cell-based
Settings: Chlorocebus sabaeus

Row | SMILES | IC50
3 | CC[C@H]1CN2CCc3cc(OC)c(OC)cc3[C@@H]2C[C@@H]1C[C@H]1NCCc2cc(OC)c(OC)cc21 [EMETINE] | 0.176 µM
4 | Cc1nc(OCc2cn(CCNc3ccnc4cc(Cl)ccc34)nn2)nc(-c2ccccc2[N+](=O)[O-])c1C(=O)OC(C)C | 145 µM
5 | Cc1nc(OCc2cn(CCCNc3ccnc4cc(Cl)ccc34)nn2)nc(-c2ccccc2[N+](=O)[O-])c1C(=O)OC(C)C | 23.4 µM

System: not listed separately
Assay: n-octanol-phosphate buffer distribution coefficient, log D of the compound at pH 7.4 after 1 hr by HPLC method
Assay type: physicochemical
Settings: not given

Row | SMILES | logD at 1 h
6 | Cc1nc(OCc2cn(-c3ccnc4cc(Cl)ccc34)nn2)nc(-c2ccccc2[N+](=O)[O-])c1C(=O)OC(C)C | 1.1
7 | Cc1nc(OCc2cn(-c3ccnc4cc(Cl)ccc34)nn2)nc(-c2ccccc2)c1C(=O)OC(C)C | 1.46
8 | CCOC(=O)c1c(C)nc(OCc2cn(-c3ccnc4cc(Cl)ccc34)nn2)nc1-c1ccccc1 | 1.08
9 | COC(=O)c1c(C)nc(OCc2cn(-c3ccnc4cc(Cl)ccc34)nn2)nc1-c1ccccc1 | 0.69
10 | CCOC(=O)c1c(C)nc(OCc2cn(-c3ccnc4cc(Cl)ccc34)nn2)nc1C | 0.39
11 | COC(=O)c1c(C)nc(OCc2cn(CCNc3ccnc4cc(Cl)ccc34)nn2)nc1-c1ccccc1 | 0.58
12 | Cc1nc(OCc2cn(-c3ccnc4cc(Cl)ccc34)nn2)nc(-c2ccc([N+](=O)[O-])cc2)c1C(=O)OC(C)C | 1.12
13 | Cc1nc(OCc2cn(CCNc3ccnc4cc(Cl)ccc34)nn2)nc(-c2ccccc2[N+](=O)[O-])c1C(=O)OC(C)C | 0.86
14 | Cc1nc(OCc2cn(CCCNc3ccnc4cc(Cl)ccc34)nn2)nc(-c2ccccc2[N+](=O)[O-])c1C(=O)OC(C)C | 1.31

System: Plasmodium falciparum
Assay: microbe, parasite or virus in culture
Settings: NF54
Description: Antiplasmodial activity against chloroquine-sensitive Plasmodium falciparum NF54 by LDH release assay

Row | SMILES | IC50
15 | Cc1nc(OCc2cn(-c3ccnc4cc(Cl)ccc34)nn2)nc(-c2ccccc2[N+](=O)[O-])c1C(=O)OC(C)C | 16.1 µM
16 | Cc1nc(OCc2cn(-c3ccnc4cc(Cl)ccc34)nn2)nc(-c2ccccc2)c1C(=O)OC(C)C | 14 µM
17 | CCOC(=O)c1c(C)nc(OCc2cn(-c3ccnc4cc(Cl)ccc34)nn2)nc1-c1ccccc1 | 12.2 µM
18 | COC(=O)c1c(C)nc(OCc2cn(-c3ccnc4cc(Cl)ccc34)nn2)nc1-c1ccccc1 | 15.8 µM
19 | CCOC(=O)c1c(C)nc(OCc2cn(-c3ccnc4cc(Cl)ccc34)nn2)nc1C | 84.2 µM
20 | COC(=O)c1c(C)nc(OCc2cn(CCNc3ccnc4cc(Cl)ccc34)nn2)nc1-c1ccccc1 | 10.4 µM
21 | Cc1nc(OCc2cn(-c3ccnc4cc(Cl)ccc34)nn2)nc(-c2ccc([N+](=O)[O-])cc2)c1C(=O)OC(C)C | 7.86 µM
22 | Cc1nc(OCc2cn(CCNc3ccnc4cc(Cl)ccc34)nn2)nc(-c2ccccc2[N+](=O)[O-])c1C(=O)OC(C)C | 0.53 µM
23 | Cc1nc(OCc2cn(CCCNc3ccnc4cc(Cl)ccc34)nn2)nc(-c2ccccc2[N+](=O)[O-])c1C(=O)OC(C)C | 0.6 µM

System: not listed separately
Assay: Aqueous solubility in pH 7.4 PBS buffer after 24 hrs by HPLC analysis
Assay type: physicochemical
Settings: not given

Row | SMILES | solubility at 24 h
24 | Cc1nc(OCc2cn(-c3ccnc4cc(Cl)ccc34)nn2)nc(-c2ccccc2[N+](=O)[O-])c1C(=O)OC(C)C | 2.93 µM (≈ 1.64 µg/mL)
25 | Cc1nc(OCc2cn(-c3ccnc4cc(Cl)ccc34)nn2)nc(-c2ccccc2)c1C(=O)OC(C)C | 1.78 µM (≈ 0.917 µg/mL)
26 | CCOC(=O)c1c(C)nc(OCc2cn(-c3ccnc4cc(Cl)ccc34)nn2)nc1-c1ccccc1 | 5.47 µM (≈ 2.74 µg/mL)
27 | COC(=O)c1c(C)nc(OCc2cn(-c3ccnc4cc(Cl)ccc34)nn2)nc1-c1ccccc1 | 3.31 µM (≈ 1.61 µg/mL)
28 | CCOC(=O)c1c(C)nc(OCc2cn(-c3ccnc4cc(Cl)ccc34)nn2)nc1C | 7.18 µM (≈ 3.15 µg/mL)
29 | COC(=O)c1c(C)nc(OCc2cn(CCNc3ccnc4cc(Cl)ccc34)nn2)nc1-c1ccccc1 | 11.3 µM (≈ 5.99 µg/mL)
30 | Cc1nc(OCc2cn(-c3ccnc4cc(Cl)ccc34)nn2)nc(-c2ccc([N+](=O)[O-])cc2)c1C(=O)OC(C)C | 4.54 µM (≈ 2.54 µg/mL)
31 | Cc1nc(OCc2cn(CCNc3ccnc4cc(Cl)ccc34)nn2)nc(-c2ccccc2[N+](=O)[O-])c1C(=O)OC(C)C | 2.3 µM (≈ 1.39 µg/mL)
32 | Cc1nc(OCc2cn(CCCNc3ccnc4cc(Cl)ccc34)nn2)nc(-c2ccccc2[N+](=O)[O-])c1C(=O)OC(C)C | 0.58 µM (≈ 0.358 µg/mL)

System: not listed separately
Assay: in vitro
Settings: monkey, Vero cells
Description: Selectivity index, ratio of IC50 for African green monkey Vero cells to IC50 for chloroquine-sensitive Plasmodium falciparum NF54

Row | SMILES | selectivity ratio
33 | Cc1nc(OCc2cn(CCNc3ccnc4cc(Cl)ccc34)nn2)nc(-c2ccccc2[N+](=O)[O-])c1C(=O)OC(C)C | 274
34 | Cc1nc(OCc2cn(CCCNc3ccnc4cc(Cl)ccc34)nn2)nc(-c2ccccc2[N+](=O)[O-])c1C(=O)OC(C)C | 38.9

System: not listed separately
Assay: Solubility in n-octanol at pH 7.4 after 24 hrs by HPLC analysis
Assay type: physicochemical
Settings: not given

Row | SMILES | solubility at 24 h
35 | Cc1nc(OCc2cn(-c3ccnc4cc(Cl)ccc34)nn2)nc(-c2ccccc2[N+](=O)[O-])c1C(=O)OC(C)C | 37.4 µM (≈ 20.9 µg/mL)
36 | Cc1nc(OCc2cn(-c3ccnc4cc(Cl)ccc34)nn2)nc(-c2ccccc2)c1C(=O)OC(C)C | 52.5 µM (≈ 27 µg/mL)
37 | CCOC(=O)c1c(C)nc(OCc2cn(-c3ccnc4cc(Cl)ccc34)nn2)nc1-c1ccccc1 | 66.2 µM (≈ 33.2 µg/mL)
38 | COC(=O)c1c(C)nc(OCc2cn(-c3ccnc4cc(Cl)ccc34)nn2)nc1-c1ccccc1 | 16.3 µM (≈ 7.96 µg/mL)
39 | CCOC(=O)c1c(C)nc(OCc2cn(-c3ccnc4cc(Cl)ccc34)nn2)nc1C | 17.8 µM (≈ 7.8 µg/mL)
40 | COC(=O)c1c(C)nc(OCc2cn(CCNc3ccnc4cc(Cl)ccc34)nn2)nc1-c1ccccc1 | 44.7 µM (≈ 23.7 µg/mL)
41 | Cc1nc(OCc2cn(-c3ccnc4cc(Cl)ccc34)nn2)nc(-c2ccc([N+](=O)[O-])cc2)c1C(=O)OC(C)C | 60.5 µM (≈ 33.9 µg/mL)
42 | Cc1nc(OCc2cn(CCNc3ccnc4cc(Cl)ccc34)nn2)nc(-c2ccccc2[N+](=O)[O-])c1C(=O)OC(C)C | 16.7 µM (≈ 10.1 µg/mL)
43 | Cc1nc(OCc2cn(CCCNc3ccnc4cc(Cl)ccc34)nn2)nc(-c2ccccc2[N+](=O)[O-])c1C(=O)OC(C)C | 12.1 µM (≈ 7.49 µg/mL)
